Laboratory results taken from ChEMBL document CHEMBL4052640 (Eur J Med Chem, 2017).

Experiments:
[1] = test system: Influenza B virus; assay: microbe, parasite or virus in culture; conditions: B/Ned/537/05, MDCK
[2] = cells; conditions: Influenza A virus, MDCK
[3] = test system: Mammalian orthoreovirus 1; assay type: functional; conditions: Mammalian orthoreovirus 1, Vero
[4] = cells; conditions: Influenza A virus, MDCK; remark: listed apart in the source
[5] = test system: Influenza A virus; assay type: functional, cell-based; conditions: A/Ned/378/05(H1N1), MDCK
[6] = test system: Vesicular stomatitis virus; assay: microbe, parasite or virus in culture; conditions: HeLa
[7] = test system: Influenza A virus; assay type: functional, cell-based; conditions: A/Ned/378/05(H1N1), MDCK; remark: listed apart in the source
[8] = test system: MDCK; assay: Cytotoxicity against dog MDCK cells assessed as reduction in cell viability measured after 5 to 6 days by MTS assay; assay type: cell-based, Canis lupus familiaris
[9] = test system: Coxsackievirus B4; assay type: functional, cell-based; conditions: Enterovirus B, HeLa
[10] = test system: Human respirovirus 3; assay: microbe, parasite or virus in culture; conditions: Human respirovirus 3, Vero
[11] = test system: Respiratory syncytial virus; assay type: functional, cell-based; conditions: human respiratory syncytial virus, HeLa
[12] = cells; conditions: MDCK
[13] = test system: Sindbis virus; assay type: functional; conditions: Vero
[14] = test system: Yellow fever virus; assay: microbe, parasite or virus in culture; conditions: Vero
[15] = test system: Punta Toro virus; assay type: functional; conditions: Vero
[16] = test system: Coxsackievirus B4; assay type: functional; conditions: Enterovirus B, Vero

SMILES	EC50 [1]	EC50 [2]	EC50 [3]	EC50 [4]	EC50 [5]	EC50 [6]	EC50 [7]	CC50 [8]	EC50 [9]	EC50 [10]	EC50 [11]	EC50 [12]	EC50 [13]	EC50 [14]	EC50 [15]	EC50 [16]
CC1(C)N=C(N)N=C(N)N1c1ccc(Cl)cc1Cl	> 100 µM	≥ 83 µM	> 100 µM	> 83 µM	> 100 µM	> 100 µM	> 100 µM	> 100 µM	> 100 µM	> 100 µM	> 100 µM	> 100 µM	> 100 µM	> 100 µM	> 100 µM	> 100 µM
Cc1ccc(N2C(N)=NC(N)=NC2(C)C)cc1	11 µM	53 µM	> 100 µM	34 µM	34 µM	> 100 µM	48 µM	> 100 µM	> 100 µM	> 100 µM		1.2 µM	> 100 µM	> 100 µM	> 100 µM	> 100 µM
COc1ccc(N2C(N)=NC(N)=NC2(C)C)cc1			> 100 µM			> 100 µM		> 100 µM	> 100 µM	> 100 µM			> 100 µM	> 100 µM	> 100 µM	> 100 µM
NC1=NC2(CCCC2)N(c2cccc(Cl)c2)C(N)=N1	4.5 µM	> 100 µM	> 100 µM	49 µM		> 100 µM		> 100 µM	> 100 µM	> 100 µM	0.22 µM	0.4 µM	> 100 µM	> 100 µM	> 100 µM	> 100 µM
N=C(N)NC(=N)Nc1ccc(Cl)cc1 [4-CHLOROPHENYLBIGUANIDE]	> 100 µM	> 83 µM	> 100 µM	> 83 µM	> 100 µM	> 100 µM	> 100 µM	> 100 µM	> 100 µM	> 100 µM	> 100 µM	> 100 µM	> 100 µM	> 100 µM	> 100 µM	> 100 µM
CC1(C)N=C(N)N=C(N)N1c1cccc(F)c1	1.7 µM	> 100 µM	9.5 µM	21 µM		> 100 µM		> 100 µM	> 100 µM	> 100 µM	0.01 µM	0.2 µM	> 100 µM	> 100 µM	> 100 µM	> 100 µM
CC(C)C1(C)N=C(N)N=C(N)N1c1ccc(Cl)cc1 (stereo unspecified)	2.8 µM	33 µM	> 100 µM	24 µM	68 µM	> 100 µM	45 µM	> 100 µM	> 100 µM	> 100 µM	0.8 µM	1 µM	> 100 µM	> 100 µM	> 100 µM	> 100 µM
CC1(C)N=C(N)N=C(N)N1c1cc(C(F)(F)F)cc(C(F)(F)F)c1	1.8 µM	> 100 µM	> 100 µM	36 µM		> 100 µM		> 100 µM	> 100 µM	> 100 µM	0.27 µM	0.8 µM	> 100 µM	> 100 µM	> 100 µM	> 100 µM
CCc1nc(N)nc(N)c1-c1ccc(Cl)cc1 [PYRIMETHAMINE]		> 83 µM		> 83 µM		> 100 µM		41 µM	> 100 µM					> 100 µM	> 100 µM	
NC1=NC2(CCCC2)N(c2cccc(C(F)(F)F)c2)C(N)=N1	1.6 µM	> 100 µM	> 100 µM	> 100 µM		> 100 µM		> 100 µM	> 100 µM	> 100 µM	0.2 µM	0.33 µM	> 100 µM	> 100 µM	> 100 µM	> 100 µM
CC1(C)N=C(N)N=C(N)N1c1cccc(Br)c1		> 100 µM		> 100 µM		> 100 µM		29 µM	> 100 µM	> 100 µM			> 100 µM	> 100 µM	> 100 µM	> 100 µM
COc1c(C)c2c(c(O)c1C/C=C(\C)CCC(=O)O)C(=O)OC2 [MYCOPHENOLIC ACID]										0.4 µM			1.4 µM	2.3 µM		> 100 µM
NC12CC3CC(CC(C3)C1)C2 [AMANTADINE]	> 400 µM	124 µM		211 µM	2.2 µM		2.3 µM	> 400 µM				> 400 µM				
CC1(C)N=C(N)N=C(N)N1c1ccccc1			> 100 µM			> 100 µM		> 100 µM	> 100 µM	> 100 µM			> 100 µM	> 100 µM	> 100 µM	> 100 µM
CC(N)C12CC3CC(CC(C3)C1)C2 (stereo unspecified) [RIMANTADINE]	> 400 µM							> 400 µM				> 400 µM				
CC(=O)N[C@H]1[C@H]([C@H](O)[C@H](O)CO)OC(C(=O)O)=C[C@@H]1N=C(N)N [ZANAMIVIR]	0.06 µM	2.3 µM		6.8 µM				> 100 µM				0.055 µM				
CC1(C)N=C(N)N=C(N)N1c1ccc(Cl)cc1 [CYCLOGUANIL]			> 100 µM			> 100 µM		52 µM	> 100 µM	> 100 µM			> 100 µM	> 100 µM	> 100 µM	> 100 µM
CC1(C)N=C(N)N=C(N)N1c1cccc(Cl)c1						> 100 µM		1.4 µM	> 100 µM	> 100 µM			> 100 µM	> 100 µM	> 100 µM	> 100 µM
NC1=NC2(CCCCC2)N(c2cccc(C(F)(F)F)c2)C(N)=N1		> 100 µM	> 100 µM	> 100 µM		> 100 µM		> 100 µM	> 100 µM	> 100 µM			> 100 µM	> 100 µM	> 100 µM	> 100 µM
NC(=O)c1ncn([C@@H]2O[C@H](CO)[C@@H](O)[C@H]2O)n1 [RIBAVIRIN]			> 250 µM		7.6 µM		10 µM				5.8 µM		> 250 µM	> 250 µM	29 µM	> 250 µM
NC1=NC2(CCCCC2)N(c2cccc(Cl)c2)C(N)=N1	10 µM	> 100 µM	> 100 µM	> 100 µM		> 100 µM		> 100 µM	> 100 µM	> 100 µM		3 µM	> 100 µM	> 100 µM	> 100 µM	> 100 µM
CC1(C)N=C(N)N=C(N)N1c1ccc(F)cc1			> 100 µM			> 100 µM		> 100 µM	> 100 µM	> 100 µM			> 100 µM	> 100 µM	> 100 µM	> 100 µM
